From patent US9938322B2, “β-hairpin peptidomimetics” (priority 2013, dated 2018)
*1 amine or outer side, *2 acyl side, *3 side chain or, on linkers, in order; H or OH if unused. Where a SMILES comes first, the peptide text is derived from it. [ ]: non-standard residue; d: D form. Tic(7-OH) = O=C(O)[C@@H]1Cc2ccc(O)cc2CN1; X1 = CC(C)NC[C@H](N[*:1])C(=O)[*:2]; Cha = N[C@@H](CC1CCCCC1)C(=O)O; aThr = C[C@H](O)[C@H](N)C(=O)O; Chg = N[C@H](C(=O)O)C1CCCCC1; Tle = CC(C)(C)[C@H](N)C(=O)O; dDab = NCC[C@@H](N)C(=O)O; hSer = N[C@@H](CCO)C(=O)O; Orn = NCCC[C@H](N)C(=O)O; Dab = NCC[C@H](N)C(=O)O; Nva = CCC[C@H](N)C(=O)O; Dap = NC[C@H](N)C(=O)O

System: human red blood cells (hRBC)
Experiment: Hemolysis of human red blood cells
Format: cell-based
Conditions: red cells of human, 1 h, 100
Summary of the method: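 Washed fresh human erythrocytes (20% v/v, about 0.9×10^9 cells/ml final) incubated with peptide at 100 μg/ml for 1 h at 37° C with shaking. Supernatant OD540 read; hemolysis expressed relative to 2.5% Triton X-100 (100%) and PBS with 0.001% acetic acid (0%).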

Row | SMILES | Hemolysis at 100 μg/ml [%]
1 | CC(C)C[C@@H]1NC(=O)[C@@H]2CCCN2C(=O)[C@H]2CCCN2C(=O)[C@H](CO)NC(=O)[C@H](C)NC(=O)[C@H](C(C)(C)C)NC(=O)[C@H](CCN)NC(=O)[C@H](Cc2c[nH]c3ccccc23)NC(=O)[C@H](CCN)NC(=O)[C@@H](CCN)NC(=O)[C@H](CCCNC(=N)N)NC(=O)[C@H](CCN)NC(=O)[C@H](Cc2ccc(O)cc2)NC(=O)[C@H](CO)NC1=O [compound 98] (cyclo(LSY[Dab]R[dDab][Dab]W[Dab][Tle]AS[dP]P)) | 1
2 | CC(C)[C@@H]1NC(=O)[C@H](CCN)NC(=O)[C@H](Cc2c[nH]c3ccccc23)NC(=O)[C@H](CCN)NC(=O)[C@@H](CCN)NC(=O)[C@H](CCCN)NC(=O)[C@H](CCN)NC(=O)[C@H](Cc2ccc(O)cc2)NC(=O)[C@H](CO)NC(=O)[C@H](Cc2c[nH]c3ccccc23)NC(=O)[C@@H]2CCCN2C(=O)[C@H]2CCCN2C(=O)[C@H](CO)NC(=O)[C@H](C)NC1=O [compound 72] (cyclo(WSY[Dab][Orn][dDab][Dab]W[Dab]VAS[dP]P)) | 0
3 | CC(C)NC[C@@H]1NC(=O)[C@H](Cc2c[nH]c3ccccc23)NC(=O)[C@@H]2CCCN2C(=O)[C@H]2CCCN2C(=O)[C@H](CO)NC(=O)[C@H](C)NC(=O)[C@H](C(C)(C)C)NC(=O)[C@H](CCO)NC(=O)[C@H](Cc2c[nH]c3ccccc23)NC(=O)[C@H](CCN)NC(=O)[C@@H](CCN)NC(=O)[C@H](CCCN)NC(=O)[C@H](CCN)NC(=O)[C@H](CC2CCCCC2)NC1=O [compound 9] (cyclo(W[X1][Cha][Dab][Orn][dDab][Dab]W[hSer][Tle]AS[dP]P)) | 2
4 | CC(C)C[C@@H]1NC(=O)[C@@H]2CCCN2C(=O)[C@H]2CCCN2C(=O)[C@H](CO)NC(=O)[C@H](C)NC(=O)[C@H](C(C)(C)C)NC(=O)[C@H](CCO)NC(=O)[C@H](Cc2c[nH]c3ccccc23)NC(=O)[C@H](CCN)NC(=O)[C@@H](CCN)NC(=O)[C@H](CCCN)NC(=O)[C@H](CCN)NC(=O)[C@H](Cc2ccc(O)cc2)NC(=O)[C@H](CO)NC1=O [compound 37] (cyclo(LSY[Dab][Orn][dDab][Dab]W[hSer][Tle]AS[dP]P)) | 1
5 | CCC[C@@H]1NC(=O)[C@@H]2CCCN2C(=O)[C@H]2CCCN2C(=O)[C@H](CO)NC(=O)[C@H](C)NC(=O)[C@H](CC2CCCCC2)NC(=O)[C@H](CCN)NC(=O)[C@H](Cc2c[nH]c3ccccc23)NC(=O)[C@H](CCN)NC(=O)[C@@H](CCN)NC(=O)[C@H](CCCCN)NC(=O)[C@H](CCN)NC(=O)[C@H](C(C)(C)C)NC(=O)[C@H](CO)NC1=O [compound 139] (cyclo([Nva]S[Tle][Dab]K[dDab][Dab]W[Dab][Cha]AS[dP]P)) | 5
6 | C[C@@H]1NC(=O)[C@H](C(C)(C)C)NC(=O)[C@H](CCN)NC(=O)[C@H](Cc2c[nH]c3ccccc23)NC(=O)[C@H](CCN)NC(=O)[C@H](CCN)NC(=O)[C@H](CCCN)NC(=O)[C@H](CCN)NC(=O)[C@H](Cc2ccc(O)cc2)NC(=O)[C@H](CO)NC(=O)[C@H](Cc2c[nH]c3ccccc23)NC(=O)[C@@H]2CCCN2C(=O)[C@H]2CCCN2C(=O)[C@H](CO)NC1=O [compound 74] (cyclo(WSY[Dab][Orn][Dab][Dab]W[Dab][Tle]AS[dP]P)) | 0
7 | CC[C@H](C)[C@@H]1NC(=O)[C@@H]2CCCN2C(=O)[C@H]2CCCN2C(=O)[C@H](CO)NC(=O)[C@H](C)NC(=O)[C@H](C(C)(C)C)NC(=O)[C@H](CCN)NC(=O)[C@H](Cc2c[nH]c3ccccc23)NC(=O)[C@H](CCN)NC(=O)[C@@H](CCN)NC(=O)[C@H](CCCN)NC(=O)[C@H](CCN)NC(=O)[C@H](Cc2ccc(O)cc2)NC(=O)[C@H]([C@H](C)O)NC1=O [compound 86] (cyclo(I[aThr]Y[Dab][Orn][dDab][Dab]W[Dab][Tle]AS[dP]P)) | 1
8 | CC(C)C[C@@H]1NC(=O)[C@@H]2CCCN2C(=O)[C@H]2CCCN2C(=O)[C@H](CO)NC(=O)[C@H](CO)NC(=O)[C@H](C(C)(C)C)NC(=O)[C@H](CCN)NC(=O)[C@H](Cc2c[nH]c3ccccc23)NC(=O)[C@H](CCN)NC(=O)[C@@H](CCN)NC(=O)[C@H](CCCN)NC(=O)[C@H](CCN)NC(=O)[C@H](Cc2ccc(O)cc2)NC(=O)[C@H](CO)NC1=O [compound 117] (cyclo(LSY[Dab][Orn][dDab][Dab]W[Dab][Tle]SS[dP]P)) | 3
9 | C[C@@H]1NC(=O)[C@H](C(C)(C)C)NC(=O)[C@H](CCN)NC(=O)[C@H](Cc2c[nH]c3ccccc23)NC(=O)[C@H](CCN)NC(=O)[C@@H](CCN)NC(=O)[C@H](CCCN)NC(=O)[C@H](CCN)NC(=O)[C@H](Cc2ccc(O)cc2)NC(=O)[C@H](CO)NC(=O)[C@H](Cc2ccc(O)cc2)NC(=O)[C@@H]2CCCN2C(=O)[C@H]2CCCN2C(=O)[C@H](CO)NC1=O [compound 21] (cyclo(YSY[Dab][Orn][dDab][Dab]W[Dab][Tle]AS[dP]P)) | 1
10 | CCC[C@@H]1NC(=O)[C@@H]2CCCN2C(=O)[C@H]2CCCN2C(=O)[C@H](CO)NC(=O)[C@H](C)NC(=O)[C@H](C2CCCCC2)NC(=O)[C@H](CCN)NC(=O)[C@H](Cc2c[nH]c3ccccc23)NC(=O)[C@H](CCN)NC(=O)[C@@H](CCN)NC(=O)[C@H](CCCN)NC(=O)[C@H](CCN)NC(=O)[C@H](Cc2ccc(O)cc2)NC(=O)[C@H](CO)NC1=O [compound 89] (cyclo([Nva]SY[Dab][Orn][dDab][Dab]W[Dab][Chg]AS[dP]P)) | 0
11 | CC(C)C[C@@H]1NC(=O)[C@@H]2CCCN2C(=O)[C@H]2CCCN2C(=O)[C@H](CO)NC(=O)[C@H](C)NC(=O)[C@H](C(C)C)NC(=O)[C@H](CCN)NC(=O)[C@H](Cc2c[nH]c3ccccc23)NC(=O)[C@H](CCN)NC(=O)[C@@H](CCN)NC(=O)[C@H](CCCN)NC(=O)[C@H](CCN)NC(=O)[C@H](CC2CCCCC2)NC(=O)[C@H](CO)NC1=O [compound 140] (cyclo(LS[Cha][Dab][Orn][dDab][Dab]W[Dab]VAS[dP]P)) | 2
12 | CCC[C@@H]1NC(=O)[C@@H]2CCCN2C(=O)[C@H]2CCCN2C(=O)[C@H](CO)NC(=O)[C@H](C)NC(=O)[C@H](C(C)(C)C)NC(=O)[C@H](CCN)NC(=O)[C@H](Cc2c[nH]c3ccccc23)NC(=O)[C@H](CCN)NC(=O)[C@@H](CCN)NC(=O)[C@H](CCCN)NC(=O)[C@H](CCN)NC(=O)[C@H](Cc2ccc(O)cc2)NC(=O)[C@H](C)NC1=O [compound 48] (cyclo([Nva]AY[Dab][Orn][dDab][Dab]W[Dab][Tle]AS[dP]P)) | 1
13 | C[C@@H]1NC(=O)[C@H](C(C)(C)C)NC(=O)[C@H](CCN)NC(=O)[C@H](Cc2c[nH]c3ccccc23)NC(=O)[C@H](CCN)NC(=O)[C@@H](CCN)NC(=O)[C@H](CCCN)NC(=O)[C@H](CCN)NC(=O)[C@H](CC2CCCCC2)NC(=O)[C@H](CN)NC(=O)[C@H](Cc2c[nH]c3ccccc23)NC(=O)[C@@H]2Cc3ccc(O)cc3CN2C(=O)[C@H]2CCCN2C(=O)[C@H](CO)NC1=O [compound 61] (cyclo(AS[dP][Tic(7-OH)]W[Dap][Cha][Dab][Orn][dDab][Dab]W[Dab][Tle])) | 2
14 | CC(C)C[C@@H]1NC(=O)[C@H](C)NC(=O)[C@H](C(C)(C)C)NC(=O)[C@H](CCN)NC(=O)[C@H](Cc2c[nH]c3ccccc23)NC(=O)[C@H](CCN)NC(=O)[C@@H](CCN)NC(=O)[C@H](CCCN)NC(=O)[C@H](CCN)NC(=O)[C@H](Cc2ccc(O)cc2)NC(=O)[C@H](CO)NC(=O)[C@H]([C@@H](C)O)NC(=O)[C@@H]2CCCN2C(=O)[C@H]2CCCN2C1=O [compound 161] (cyclo(TSY[Dab][Orn][dDab][Dab]W[Dab][Tle]AL[dP]P)) | 2
15 | CC(C)C[C@@H]1NC(=O)[C@@H]2CCCN2C(=O)[C@H]2CCCN2C(=O)[C@H](CO)NC(=O)[C@H](C)NC(=O)[C@H](C(C)(C)C)NC(=O)[C@H](CCN)NC(=O)[C@H](Cc2c[nH]c3ccccc23)NC(=O)[C@H](CCN)NC(=O)[C@@H](CCN)NC(=O)[C@H](CCCN)NC(=O)[C@H](CCN)NC(=O)[C@H](Cc2c[nH]c3ccccc23)NC(=O)[C@H](CN)NC1=O [compound 147] (cyclo(L[Dap]W[Dab][Orn][dDab][Dab]W[Dab][Tle]AS[dP]P)) | 0
16 | CC(C)C[C@@H]1NC(=O)[C@@H]2CCCN2C(=O)[C@H]2CCCN2C(=O)[C@H](CO)NC(=O)[C@H](C)NC(=O)[C@H](C(C)(C)C)NC(=O)[C@H](CCN)NC(=O)[C@H](Cc2c[nH]c3ccccc23)NC(=O)[C@H](CCCN)NC(=O)[C@@H](CCN)NC(=O)[C@H](CCCN)NC(=O)[C@H](CCN)NC(=O)[C@H](Cc2ccc(O)cc2)NC(=O)[C@H](CO)NC1=O [compound 99] (cyclo(LSY[Dab][Orn][dDab][Orn]W[Dab][Tle]AS[dP]P)) | 0
17 | C[C@@H]1NC(=O)[C@H](C(C)(C)C)NC(=O)[C@H](CCN)NC(=O)[C@H](Cc2c[nH]c3ccccc23)NC(=O)[C@H](CCN)NC(=O)[C@@H](CCN)NC(=O)[C@H](CCCN)NC(=O)[C@H](CCN)NC(=O)[C@H](CC2CCCCC2)NC(=O)[C@H](CN)NC(=O)[C@H](Cc2c[nH]c3ccccc23)NC(=O)[C@@H]2CCCN2C(=O)[C@H]2CCCN2C(=O)[C@H](CO)NC1=O [Ex. 10] (cyclo(W[Dap][Cha][Dab][Orn][dDab][Dab]W[Dab][Tle]AS[dP]P)) | 3.5
18 | C[C@@H]1NC(=O)[C@H](Cc2c[nH]c3ccccc23)NC(=O)[C@@H]2CCCN2C(=O)[C@H]2CCCN2C(=O)[C@H](CO)NC(=O)[C@H](C)NC(=O)[C@H](C(C)(C)C)NC(=O)[C@H](CCN)NC(=O)[C@H](Cc2c[nH]c3ccccc23)NC(=O)[C@H](CCN)NC(=O)[C@@H](CCN)NC(=O)[C@H](CCCN)NC(=O)[C@H](CCN)NC(=O)[C@H](C2CCCCC2)NC1=O [compound 3] (cyclo(WA[Chg][Dab][Orn][dDab][Dab]W[Dab][Tle]AS[dP]P)) | 2.5
19 | CC(C)C[C@@H]1NC(=O)[C@@H]2CCCN2C(=O)[C@H]2CCCN2C(=O)[C@H](CO)NC(=O)[C@H](C)NC(=O)[C@H](CC2CCCCC2)NC(=O)[C@H](CCN)NC(=O)[C@H](Cc2c[nH]c3ccccc23)NC(=O)[C@H](CCN)NC(=O)[C@@H](CCN)NC(=O)[C@H](CCCN)NC(=O)[C@H](CCN)NC(=O)[C@H](Cc2ccc(O)cc2)NC(=O)[C@H](C)NC1=O [compound 127] (cyclo(LAY[Dab][Orn][dDab][Dab]W[Dab][Cha]AS[dP]P)) | 1
